# US12459921B2, “Isoindoline compound, preparation method, pharmaceutical composition and use thereof” (SHANGHAI INSTITUTE OF MATERIA MEDICA, CHINESE ACADEMY OF …, priority 2018, dated 2025)
# Test system: MM.1S cells
# Assay: Inhibitory effect on the proliferation of MM.1S, MTS cell viability test
# Type: cell-based
# Conditions: Homo sapiens, MM1.S, 168 h, multiple myeloma MM.1S cells, 7 days incubation, read-out: Tumor cell inhibitory activity
# In short: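 Viability measured by MTS (OD490 minus OD690 background, 3-4 h) after a 7-day exposure of 20,000 MM.1S cells/well to 5-fold serially diluted compound, 0.2% DMSO final. Inhibition calculated relative to DMSO wells; IC50 curve-fitted, averaged over three repeats.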
row,Compound,IC50
1,"C[C@]1(N2C(=O)c3cccc(OCCCN4CCN(c5cccc(Cl)c5Cl)CC4)c3C2=O)CCC(=O)NC1=O [Example 27, (S)-4-(3-(4-(2,3-dichlorophenyl)piperazine-1-)propoxy)-2-(3-methyl-2,6-dioxopiperidine-3-)isoindoline-1,3-dione]",1000 to 20000 nM
2,O=C1CCC(N2Cc3c(CCCCCN4CCC5(C4)C(=O)Nc4ccccc45)cccc3C2=O)C(=O)N1 (stereo not drawn) [Example 139],100 to 1000 nM
3,"CC(=O)N[C@@H](CCCc1cccc2c1CN(C1CCC(=O)NC1=O)C2=O)C(=O)N[C@@H]1CCc2ccccc21 (stereo partly drawn) [Example 177, (2S)-2-acetylamino-N—((R)-2,3-dihydro-1H-indene-1-)-5-(2-(2,6-dioxopiperidine-3-)-1-oxoisoindoline-4-)pentanamide]",100 to 1000 nM
4,"COc1ccc(C2(C#N)CCN(CCCCCc3cccc4c3CN(C3CCC(=O)NC3=O)C4=O)CC2)cc1OC (stereo not drawn) [Example 249, 4-(3,4-dimethoxyphenyl)-1-(5-(2-(2,6-dioxopiperidine-3-yl)-1-oxoisoindoline-4-yl)pentyl)piperidine-4-carbonitrile]",100 to 1000 nM
5,"Cc1cc(COCCCCOc2cccc3c2CN(C2CCC(=O)NC2=O)C3=O)c2ccccc2n1 (stereo not drawn) [Example 213, 3-(4-(4-((2-methylquinoline-4-)methoxy)butoxy)-1-oxoisoindoline-2-)piperidine-2,6-dione]",100 to 1000 nM
6,"C[C@]1(N2C(=O)c3cccc(OCCCN4CCC(C#N)(c5cccc(OC(F)(F)F)c5)CC4)c3C2=O)CCC(=O)NC1=O [Example 62, (S)-1-(3-((2-(3-methyl-2,6-dioxopiperidine-3-)-1,3-dioxoisoindoline-4-)oxy)propyl)-4-(3-(trifluoromethoxy)phenyl)piperidine-4-carbonitrile]",1000 to 20000 nM
7,"O=C1CCC(N2Cc3c(CCCCN4CCC(c5noc6cc(F)ccc56)CC4)cccc3C2=O)C(=O)N1 (stereo not drawn) [Example 227, 3-(4-(4-(4-(6-fluorobenzisoxazole-3-yl)piperidin-1-yl)butyl)-1-oxoisoindoline-2-yl)piperidine-2,6-dione]",1000 to 20000 nM
8,"O=C1CCC(N2Cc3c(CCCCN4CCN(c5ccccc5C(F)(F)F)CC4)cccc3C2=O)C(=O)N1 (stereo not drawn) [Example 219, 3-(1-oxo-4-(4-(4-(2-(trifluoromethyl)phenyl)piperazine-1-yl)butyl)isoindoline-2-yl)piperidine-2,6-dione]",< 100 nM
9,"O=C1CCC(N2Cc3c(CCCCCN4CCOc5cc(Br)ccc54)cccc3C2=O)C(=O)N1 (stereo not drawn) [Example 110, 3-(4-(5-(7-bromo-2,3-dihydro-4H-benzo[b][1,4]oxazine-4-)pentyl)-1-oxoisoindoline-2-)piperidine-2,6-dione]",< 100 nM
10,"O=C1CCC(N2Cc3c(CCCCCN4CCN(c5cc(Cl)ccc5Cl)CC4)cccc3C2=O)C(=O)N1 (stereo not drawn) [Example 233, 3-(4-(5-(4-(2,5-dichlorophenyl)piperazine-1-yl)pentyl)-1-oxoisoindoline-2-yl) piperidine-2,6-dione]",100 to 1000 nM
11,"N#CC1(c2cccc(Cl)c2)CCN(CCCCOc2cccc3c2CN(C2CCC(=O)NC2=O)C3=O)CC1 (stereo not drawn) [Example 75, 4-(3-chlorophenyl)-1-(4-((2-(2,6-dioxopiperidine-3-)-1-oxoisoindoline-4-)oxy)butyl)piperidine-4-carbonitrile]",100 to 1000 nM
12,"O=C1CCC(N2Cc3c(OCCNC(=O)N4CCC5(CC4)OCc4ccc(Cl)cc45)cccc3C2=O)C(=O)N1 (stereo not drawn) [Example 155, 6-chloro-N-(2-((2-(2,6-dioxopiperidine-3-)-1-oxoisoindoline-4-)oxy)ethyl)-3H-spiro[isobenzofuran-1,4-piperidine]-1-carboxamide]",< 100 nM
13,"O=C1CCC(N2Cc3c(OCCCCOc4cc(C5CC5)nc5ccccc45)cccc3C2=O)C(=O)N1 (stereo not drawn) [Example 8, 3-(4-(4-((2-cyclopropylquinoline-4-)oxy)butoxy)-1-oxoisoindoline-2-)piperidine-2,6-dione]",< 100 nM
14,"N[C@@H](CCCc1cccc2c1CN(C1CCC(=O)NC1=O)C2=O)c1nc2ccccc2[nH]1 (stereo partly drawn) [Example 199, 3-(4-((S)-4-amino-4-(1H-benzo(d)imidazole-2-)butyl)-1-oxoisoindoline-2-)piperidine-2,6-dione]",> 20000 nM
15,"N#CC1(c2ccc(C(F)(F)F)cc2)CCN(CCCCCc2cccc3c2CN(C2CCC(=O)NC2=O)C3=O)CC1 (stereo not drawn) [Example 271, 1-(5-(2-(2,6-dioxopiperidin-3-yl)-1-oxoisoindolin-4-yl)pentyl)-4-(4-(trifluoromethyl)phenyl)piperidine-4-carbonitrile]",1000 to 20000 nM
16,"[2H]c1c([2H])c([2H])c(N2CCN(CCCCc3cccc4c3CN(C3CCC(=O)NC3=O)C4=O)CC2)c([2H])c1[2H] (stereo not drawn) [Example 208, 3-(1-oxo-4-(4-(4-(phenyl-d5)piperazine-1-)butyl)isoindoline-2-)piperidine-2,6-dione]",100 to 1000 nM
17,"C[C@]1(N2C(=O)c3cccc(OCCCN4CCC(C#N)(c5cccc(Cl)c5)CC4)c3C2=O)CCC(=O)NC1=O [Example 54, (S)-4-(3-chlorophenyl)-1-(3-((2-(3-methyl-2,6-dioxopiperidine-3-)-1,3-dioxoisoindoline-4-)oxy)propyl)piperidine-4-carbonitrile]",1000 to 20000 nM

row,Compound,IC50
1,"O=C1CCC(N2Cc3c(OCCNC(=O)N4CCN(c5cccc(Cl)c5Cl)CC4)cccc3C2=O)C(=O)N1 (stereo not drawn) [Example 32, 4-(2,3-dichlorophenyl)-N-(2-((2-(2,6-dioxopiperidine-3-)-1-oxoisoindoline-4-)oxy)ethyl)piperazine-1-carboxamide]",100 to 1000 nM
2,"N#CC1(c2ccc(Cl)c(Cl)c2)CCN(CCCCc2cccc3c2CN(C2CCC(=O)NC2=O)C3=O)CC1 (stereo not drawn) [Example 272, 4-(3,4-dichlorophenyl)-1-(4-(2-(2,6-dioxopiperidin-3-yl)-1-oxoisoindoline-4-yl)butyl)piperidine-4-carbonitrile]",100 to 1000 nM
3,"Cc1ccc(NC(=O)NCCCCOc2cccc3c2CN(C2CCC(=O)NC2=O)C3=O)cc1Cl (stereo not drawn) [Example 162, 1-(3-chloro-4-methylphenyl)-3-(4-((2-(2,6-dioxopiperidine-3-)-1-oxoisoindoline-4-)oxy)butyl)urea]",< 100 nM
4,"CC(=O)N[C@@H](CCCc1cccc2c1CN(C1CCC(=O)NC1=O)C2=O)C(=O)NC1C2CC3CC(C2)CC1C3 (stereo partly drawn) [Example 200, (2S)-2-acetylamino-N-((1S,3S,5S,7 S)-adamantane-2-)-5-(2-(2,6-dioxopiperidine-3-)-1-oxoisoindoline-4-)pentanamide]",100 to 1000 nM
5,"O=C1CCC(N2Cc3c(OCCCCC(=O)N4CCc5ccccc54)cccc3C2=O)C(=O)N1 (stereo not drawn) [Example 118, 3-(4-((5-(indoline-1-)-5-oxopentyl)oxy)-1-oxoisoindoline-2-)piperidine-2,6-dione]",< 100 nM
6,"CCC(=O)N[C@@H](CCCc1cccc2c1CN(C1CCC(=O)NC1=O)C2=O)C(=O)NCc1ccccc1 (stereo partly drawn) [Example 206, (2S)—N-benzyl-5-(2-(2,6-dioxopiperidine-3-)-1-oxoisoindoline-4-)-2-propionamidopentaneamide]",< 100 nM
7,"N[C@@H](CCCc1cccc2c1CN(C1CCC(=O)NC1=O)C2=O)C(=O)NC1C2CC3CC(C2)CC1C3 (stereo partly drawn) [Example 176, (2S)—N-((1S,3S,5S,7 S)-adamantane-2-)-2-amino-5-(2-(2,6-dioxopiperidine-3-)-1-oxoisoindoline-4-)pentanamide]",> 20000 nM
8,"O=C1CCC(N2Cc3c(OCCCCNC(=O)N4CCC5(CC4)OCc4ccc(Cl)cc45)cccc3C2=O)C(=O)N1 (stereo not drawn) [Example 154, 6-chloro-N-(4-((2-(2,6-dioxopiperidine-3-)-1-oxoisoindoline-4-)-oxy-)butyl)-3H-spiro[isobenzofuran-1,4-piperidine]-1-carboxamide]",< 100 nM
9,"COc1ccc(OC)c(C2(C#N)CCN(CCCCCc3cccc4c3CN(C3CCC(=O)NC3=O)C4=O)CC2)c1 (stereo not drawn) [Example 247, 4-(2,5-dimethoxyphenyl)-1-(5-(2-(2,6-dioxopiperidine-3-yl)-1-oxoisoindoline-4-yl)pentyl)piperidine-4-carbonitrile]",100 to 1000 nM
10,"CC(=O)N[C@@H](CCCc1cccc2c1CN(C1CCC(=O)NC1=O)C2=O)C(=O)NC12CC3CC(CC(C3)C1)C2 (stereo partly drawn) [Example 198, (2S)-2-acetylamino-N-((3R,5R,7R)-adamantane-1-)-5-(2-(2,6-dioxopiperidine-3-)-1-oxoisoindoline-4-)pentanamide]",< 100 nM
11,"O=C1CCC(N2Cc3c(CCCCCN4CCCC4c4ccccc4)cccc3C2=O)C(=O)N1 (stereo not drawn) [Example 17, 3-(1-oxo-4-(5-(2-phenylpyrroline-1-)pentyl)indoline-2-)piperidine-2,6-dione]",< 100 nM
12,"N#CC1(c2cccc(Cl)c2)CCN(CCCOc2cccc3c2CN(C2CCC(=O)NC2=O)C3=O)CC1 (stereo not drawn) [Example 57, 4-(3-chlorophenyl)-1-(3-((2-(2,6-dioxopiperidine-3-)-1-oxoisoindoline-4-)oxy)propyl)piperidine-4-carbonitrile]",< 100 nM
13,"COc1ccc(CNC(=O)[C@H](CCCc2cccc3c2CN(C2CCC(=O)NC2=O)C3=O)NC(C)=O)c(OC)c1 (stereo partly drawn) [Example 180, (2S)-2-acetylamino-N-(2,4-dimethoxybenzyl)-5-(2-(2,6-dipiperidine-3-)-1-oxoisoindoline-4-)pentanamide]",100 to 1000 nM
14,"O=C1CCC(N2Cc3c(OCCCCN4CCC(c5noc6cc(F)ccc56)CC4)cccc3C2=O)C(=O)N1 (stereo not drawn) [Example 241, 3-(4-(4-(4-(6-fluorobenzisoxazole-3-yl)piperidin-1-yl)butoxy)-1-oxoisoindoline-2-yl) piperidine-2,6-dione]",1000 to 20000 nM
15,"O=C1CCC(N2Cc3c(CCCCCN4CCN(c5cccc6ccsc56)CC4)cccc3C2=O)C(=O)N1 (stereo not drawn) [Example 225, 3-(4-(5-(4-(benzothiophene-7-yl)piperazin-1-yl)pentyl)-1-oxoisoindoline-2-yl)piperidine-2,6-dione]",1000 to 20000 nM
16,"N#CC1(c2ccc(Cl)cc2)CCN(CCCCCCc2cccc3c2CN(C2CCC(=O)NC2=O)C3=O)CC1 (stereo not drawn) [Example 102, 4-(4-chlorophenyl)-1-(6-(2-(2,6-dioxopiperidine-3-)-1-oxoisoindoline-4-)hexyl)piperidine-4-carbonitrile]",< 100 nM
